According to US11981658B2, “Substituted aminopyridine compounds as EGFR inhibitors” (YUHAN CORPORATION, priority 2021, dated 2024):
Read-outs that look alike come from different tables or passages of the source.

What was measured:
EGFR Del19/C797S = EGFR Del19/C797S (Homo sapiens, UniProt P00533, C797S/DEL746-750); assay: Biochemical EGFR kinase inhibition assay (Lance Ultra TR-FRET), double mutant del19/C797S
Procedure, shortened: (§1)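 Kinase activity is measured by TR-FRET phosphopeptide detection. Compounds span 0.003 μM to 10 μM; the 1 h reaction at room temperature is quenched with EDTA, then labelled antibody (2 nM) is incubated 60 min before reading.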

EGFR wildtype (WT) = EGFR wildtype (WT) (Homo sapiens, UniProt P00533); assay: Biochemical EGFR kinase inhibition assay (Lance Ultra TR-FRET), wildtype
Procedure, shortened: as §1

EGFR Del19/T790M/C797S = EGFR Del19/T790M/C797S (Homo sapiens, UniProt P00533, C797S/DEL746-750/T790M); assay: Biochemical EGFR kinase inhibition assay (Lance Ultra TR-FRET), triple mutant del19/T790M/C797S
Procedure, shortened: as §1

EGFR L858R/T790M/C797S = EGFR L858R/T790M/C797S (Homo sapiens, UniProt P00533, C797S/L858R/T790M); assay: Biochemical EGFR kinase inhibition assay (Lance Ultra TR-FRET), triple mutant L858R/T790M/C797S
Procedure, shortened: as §1

EGFR L858R/C797S = EGFR L858R/C797S (Homo sapiens, UniProt P00533, C797S/L858R); assay: Biochemical EGFR kinase inhibition assay (Lance Ultra TR-FRET), double mutant L858R/C797S
Procedure, shortened: as §1

[1] = ATP at Km, read-out: IC50 Del19/C797S (nM), Km ATP
[2] = IC50 Del19/C797S (nM), 100 μM ATP
[3] = ATP at Km, read-out: IC50 WT (nM), Km ATP
[4] = ATP at Km, read-out: IC50 Del19/T790M/C797S (nM), Km ATP
[5] = IC50 Del19/T790M/C797S (nM), 100 μM ATP
[6] = ATP at Km, read-out: IC50 L858R/T790M/C797S (nM), Km ATP
[7] = IC50 L858R/T790M/C797S (nM), 100 μM ATP
[8] = ATP at Km, read-out: IC50 L858R/C797S (nM), Km ATP
[9] = IC50 L858R/C797S (nM), 100 μM ATP

EGFR L858R/T790M/C797S, sequence (P00533 25-1210 T790M/C797S/L858R): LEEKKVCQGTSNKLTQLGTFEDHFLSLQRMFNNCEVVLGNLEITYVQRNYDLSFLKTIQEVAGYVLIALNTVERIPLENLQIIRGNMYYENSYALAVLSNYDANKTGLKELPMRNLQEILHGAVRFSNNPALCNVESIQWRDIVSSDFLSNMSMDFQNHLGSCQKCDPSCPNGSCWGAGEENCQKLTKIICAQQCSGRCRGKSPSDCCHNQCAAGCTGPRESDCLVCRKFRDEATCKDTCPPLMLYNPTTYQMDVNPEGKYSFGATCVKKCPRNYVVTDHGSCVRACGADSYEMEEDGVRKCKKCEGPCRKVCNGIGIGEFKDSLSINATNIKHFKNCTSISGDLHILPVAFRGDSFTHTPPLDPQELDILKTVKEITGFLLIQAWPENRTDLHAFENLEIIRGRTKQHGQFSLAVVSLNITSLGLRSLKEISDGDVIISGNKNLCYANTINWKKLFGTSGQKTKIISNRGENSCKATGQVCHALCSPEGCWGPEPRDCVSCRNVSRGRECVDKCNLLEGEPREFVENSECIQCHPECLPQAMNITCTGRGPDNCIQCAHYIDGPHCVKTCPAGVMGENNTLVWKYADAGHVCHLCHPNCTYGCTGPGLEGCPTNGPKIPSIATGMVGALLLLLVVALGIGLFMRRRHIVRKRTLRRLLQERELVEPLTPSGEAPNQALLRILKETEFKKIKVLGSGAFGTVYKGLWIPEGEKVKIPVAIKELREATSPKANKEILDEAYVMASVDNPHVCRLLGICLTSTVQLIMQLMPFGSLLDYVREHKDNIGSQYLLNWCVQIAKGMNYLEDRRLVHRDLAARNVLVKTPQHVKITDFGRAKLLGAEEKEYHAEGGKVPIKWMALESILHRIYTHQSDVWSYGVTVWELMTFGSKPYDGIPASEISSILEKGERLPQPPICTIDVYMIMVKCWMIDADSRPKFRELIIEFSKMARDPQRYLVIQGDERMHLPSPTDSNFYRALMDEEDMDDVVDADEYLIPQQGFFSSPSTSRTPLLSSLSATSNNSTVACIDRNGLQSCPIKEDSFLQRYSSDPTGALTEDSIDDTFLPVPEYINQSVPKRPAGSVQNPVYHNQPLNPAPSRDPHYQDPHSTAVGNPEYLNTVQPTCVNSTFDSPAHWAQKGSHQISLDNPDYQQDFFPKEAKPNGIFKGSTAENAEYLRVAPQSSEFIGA
EGFR Del19/T790M/C797S, sequence (P00533 with tags, fused parts or gaps DEL746-750/T790M/C797S): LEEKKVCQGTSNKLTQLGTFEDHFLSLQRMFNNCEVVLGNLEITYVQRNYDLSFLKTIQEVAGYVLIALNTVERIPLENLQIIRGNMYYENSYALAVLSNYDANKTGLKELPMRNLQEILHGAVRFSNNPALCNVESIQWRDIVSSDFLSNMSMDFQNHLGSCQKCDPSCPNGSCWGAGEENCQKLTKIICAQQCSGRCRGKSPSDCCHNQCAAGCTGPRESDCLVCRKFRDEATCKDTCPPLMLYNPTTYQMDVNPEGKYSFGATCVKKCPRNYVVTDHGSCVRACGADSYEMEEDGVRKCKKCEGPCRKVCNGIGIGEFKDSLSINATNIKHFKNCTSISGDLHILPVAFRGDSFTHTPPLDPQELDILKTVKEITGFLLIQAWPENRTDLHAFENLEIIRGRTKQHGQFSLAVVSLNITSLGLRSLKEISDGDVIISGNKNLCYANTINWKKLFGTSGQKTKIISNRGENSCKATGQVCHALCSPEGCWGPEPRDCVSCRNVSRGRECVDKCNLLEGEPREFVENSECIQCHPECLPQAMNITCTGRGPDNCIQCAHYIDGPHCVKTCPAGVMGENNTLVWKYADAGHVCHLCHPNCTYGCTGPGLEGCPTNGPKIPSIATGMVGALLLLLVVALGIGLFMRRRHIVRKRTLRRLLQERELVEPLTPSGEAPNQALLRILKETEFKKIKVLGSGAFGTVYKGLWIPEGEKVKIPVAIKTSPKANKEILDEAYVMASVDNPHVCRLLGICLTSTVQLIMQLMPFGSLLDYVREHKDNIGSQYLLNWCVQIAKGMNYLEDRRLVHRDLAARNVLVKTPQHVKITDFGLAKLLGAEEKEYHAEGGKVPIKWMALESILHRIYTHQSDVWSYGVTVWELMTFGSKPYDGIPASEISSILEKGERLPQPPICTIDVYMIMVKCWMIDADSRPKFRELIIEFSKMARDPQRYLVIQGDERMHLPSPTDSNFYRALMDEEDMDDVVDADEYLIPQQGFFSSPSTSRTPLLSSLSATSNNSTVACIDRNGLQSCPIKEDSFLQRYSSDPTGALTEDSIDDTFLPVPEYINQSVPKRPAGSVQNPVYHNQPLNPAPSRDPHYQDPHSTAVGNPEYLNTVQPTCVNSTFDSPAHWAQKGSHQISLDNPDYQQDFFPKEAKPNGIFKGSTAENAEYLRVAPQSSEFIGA
EGFR wildtype (WT), sequence (P00533 25-1210): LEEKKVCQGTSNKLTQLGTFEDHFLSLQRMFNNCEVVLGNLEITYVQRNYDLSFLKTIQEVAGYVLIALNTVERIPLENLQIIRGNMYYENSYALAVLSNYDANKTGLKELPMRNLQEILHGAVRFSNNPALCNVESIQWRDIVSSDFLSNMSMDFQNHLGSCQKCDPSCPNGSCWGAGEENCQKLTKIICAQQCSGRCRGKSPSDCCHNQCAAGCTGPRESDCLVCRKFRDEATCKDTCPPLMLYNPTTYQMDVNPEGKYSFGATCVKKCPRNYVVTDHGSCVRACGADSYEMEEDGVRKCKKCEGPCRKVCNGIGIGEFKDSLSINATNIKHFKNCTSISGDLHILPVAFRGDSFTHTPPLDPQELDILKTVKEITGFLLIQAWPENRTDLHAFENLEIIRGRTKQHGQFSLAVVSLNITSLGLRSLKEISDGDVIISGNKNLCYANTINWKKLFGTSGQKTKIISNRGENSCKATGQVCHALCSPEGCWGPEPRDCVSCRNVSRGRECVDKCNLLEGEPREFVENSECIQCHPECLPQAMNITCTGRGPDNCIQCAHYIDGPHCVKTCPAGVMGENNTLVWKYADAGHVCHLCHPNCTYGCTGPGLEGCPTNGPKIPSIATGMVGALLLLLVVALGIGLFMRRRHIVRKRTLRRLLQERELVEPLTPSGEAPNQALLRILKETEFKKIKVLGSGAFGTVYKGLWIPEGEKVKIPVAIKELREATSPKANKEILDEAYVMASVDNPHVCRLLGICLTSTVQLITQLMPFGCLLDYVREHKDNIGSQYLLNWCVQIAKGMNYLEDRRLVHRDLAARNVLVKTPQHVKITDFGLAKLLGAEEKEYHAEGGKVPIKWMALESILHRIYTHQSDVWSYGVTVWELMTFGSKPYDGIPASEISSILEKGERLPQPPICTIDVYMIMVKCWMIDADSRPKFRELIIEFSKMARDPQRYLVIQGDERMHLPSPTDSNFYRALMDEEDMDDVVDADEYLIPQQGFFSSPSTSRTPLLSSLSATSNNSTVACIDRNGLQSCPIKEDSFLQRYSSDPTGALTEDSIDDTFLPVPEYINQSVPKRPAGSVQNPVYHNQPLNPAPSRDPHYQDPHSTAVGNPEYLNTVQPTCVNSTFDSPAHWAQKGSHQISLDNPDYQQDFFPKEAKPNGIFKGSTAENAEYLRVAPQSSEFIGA
EGFR L858R/C797S, sequence (P00533 25-1210 C797S/L858R): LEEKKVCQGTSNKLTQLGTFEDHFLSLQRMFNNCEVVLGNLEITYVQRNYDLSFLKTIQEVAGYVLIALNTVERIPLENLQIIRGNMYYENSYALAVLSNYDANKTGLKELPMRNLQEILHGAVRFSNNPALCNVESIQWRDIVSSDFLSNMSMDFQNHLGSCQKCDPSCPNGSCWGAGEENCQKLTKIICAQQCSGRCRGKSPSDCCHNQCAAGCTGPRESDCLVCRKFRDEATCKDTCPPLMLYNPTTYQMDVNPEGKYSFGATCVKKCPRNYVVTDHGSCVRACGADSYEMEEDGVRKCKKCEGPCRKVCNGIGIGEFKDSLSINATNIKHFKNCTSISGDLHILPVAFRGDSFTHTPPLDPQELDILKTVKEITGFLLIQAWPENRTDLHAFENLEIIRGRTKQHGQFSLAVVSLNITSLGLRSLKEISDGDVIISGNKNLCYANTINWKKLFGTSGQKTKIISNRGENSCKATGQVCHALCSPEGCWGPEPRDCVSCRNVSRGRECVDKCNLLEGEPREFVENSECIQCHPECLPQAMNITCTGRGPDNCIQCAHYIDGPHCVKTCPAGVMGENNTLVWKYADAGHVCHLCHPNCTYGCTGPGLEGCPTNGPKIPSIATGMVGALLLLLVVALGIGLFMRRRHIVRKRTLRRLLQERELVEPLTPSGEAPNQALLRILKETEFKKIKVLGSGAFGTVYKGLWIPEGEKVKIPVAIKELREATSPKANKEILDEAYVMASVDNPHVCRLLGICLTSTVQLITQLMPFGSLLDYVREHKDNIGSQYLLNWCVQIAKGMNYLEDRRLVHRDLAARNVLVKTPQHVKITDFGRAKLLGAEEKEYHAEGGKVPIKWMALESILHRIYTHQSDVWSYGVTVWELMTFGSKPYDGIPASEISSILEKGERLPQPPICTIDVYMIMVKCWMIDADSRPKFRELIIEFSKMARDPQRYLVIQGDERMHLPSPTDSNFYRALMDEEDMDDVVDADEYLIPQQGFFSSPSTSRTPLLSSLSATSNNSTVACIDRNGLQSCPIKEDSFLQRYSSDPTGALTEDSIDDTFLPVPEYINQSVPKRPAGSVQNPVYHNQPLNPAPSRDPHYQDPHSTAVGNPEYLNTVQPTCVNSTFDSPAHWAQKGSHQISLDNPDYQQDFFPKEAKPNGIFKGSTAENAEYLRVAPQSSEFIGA

| Structure (SMILES) | IC50 (EGFR Del19/C797S; [1]) | IC50 (EGFR Del19/C797S; [2]) | IC50 (EGFR wildtype (WT); [3]) | IC50 (EGFR wildtype (WT); IC50 WT (nM), 100 μM ATP) | IC50 (EGFR Del19/T790M/C797S; [4]) | IC50 (EGFR Del19/T790M/C797S; [5]) | IC50 (EGFR L858R/T790M/C797S; [6]) | IC50 (EGFR L858R/T790M/C797S; [7]) | IC50 (EGFR L858R/C797S; [8]) | IC50 (EGFR L858R/C797S; [9]) |
| --- | --- | --- | --- | --- | --- | --- | --- | --- | --- | --- |
| O=S(=O)(C1CC1)n1cc(-c2nccc(Nc3cc(N[C@H]4CC[C@@H](O)CC4)c(C#CC4(O)CCCC4)cn3)n2)cn1 [Example 176, (1s,4s)-4-((2-((2-(1-(Cyclopropylsulfonyl)-1H-pyrazol-4-yl)pyrimidin-4-yl)amino)-5-((1-hydroxycyclopentyl)ethynyl)pyridin-4-yl)amino)cyclohexan-1-ol] | 3 nM | 3.6 nM | 40.1 nM | > 10000 nM | 0.5 nM | 0.4 nM | 0.3 nM | 0.8 nM | 14.2 nM | 104 nM |
| CC1(CO)CCN(c2cc(Nc3ccnc(-c4cnn(S(=O)(=O)C5CC5)c4)n3)ncc2C#CC2(O)CCCC2)CC1 [Example 177, 1-((6-((2-(1-(Cyclopropylsulfonyl)-1H-pyrazol-4-yl)pyrimidin-4-yl)amino)-4-(4-(hydroxymethyl)-4-methylpiperidin-1-yl)pyridin-3-yl)ethynyl)cyclopentan-1-ol] | 2 nM | 2.5 nM | 17.7 nM | 4870 nM | 0.6 nM | 0.5 nM | 0.4 nM | 0.7 nM | 7.5 nM | 66.5 nM |
| O=S(=O)(C1CC1)n1cc(-c2nccc(Nc3cc(N[C@H]4CC[C@@H](O)CC4)c(C#CC4CCOCC4)cn3)n2)cn1 [Example 178, (1s,4s)-4-((2-((2-(1-(Cyclopropylsulfonyl)-1H-pyrazol-4-yl)pyrimidin-4-yl)amino)-5-((tetrahydro-2H-pyran-4-yl)ethynyl)pyridin-4-yl)amino)cyclohexan-1-ol] | 1.1 nM | 2.3 nM | 9.5 nM | 8010 nM | 0.3 nM | 0.3 nM | 0.2 nM | 0.3 nM | 3 nM | 27 nM |
| CC1(CO)CCN(c2cc(Nc3ccnc(-c4cnn(S(=O)(=O)C5CC5)c4)n3)ncc2C#CC2CCOCC2)CC1 [Example 179, (1-(2-((2-(1-(Cyclopropylsulfonyl)-1H-pyrazol-4-yl)pyrimidin-4-yl)amino)-5-((tetrahydro-2H-pyran-4-yl)ethynyl)pyridin-4-yl)-4-methylpiperidin-4-yl)methanol] | 0.8 nM | 1.9 nM | 6.2 nM | 3880 nM | 0.4 nM | 0.5 nM | 0.2 nM | 0.3 nM | 1.5 nM | 13.4 nM |
| CN1CCC(C#Cc2cnc(Nc3ccnc(-c4cnn(S(=O)(=O)C5CC5)c4)n3)cc2N2CCC(C)(CO)CC2)C1 (centres unmarked) [Example 180, (1-(2-((2-(1-(Cyclopropylsulfonyl)-1H-pyrazol-4-yl)pyrimidin-4-yl)amino)-5-((1-methylpyrrolidin-3-yl)ethynyl)pyridin-4-yl)-4-methylpiperidin-4-yl)methanol] | 0.5 nM | 0.3 nM | 2.8 nM | 1100 nM | 0.2 nM | 0.1 nM | 0.1 nM | 0.1 nM | 0.4 nM | 2.7 nM |
| CN1CCC(C#Cc2cnc(Nc3ccnc(-c4cnn(S(=O)(=O)C5CC5)c4)n3)cc2NC2CCC(O)CC2)C1 (centres unmarked) [Example 181, (1s,4s)-4-((2-((2-(1-(Cyclopropylsulfonyl)-1H-pyrazol-4-yl)pyrimidin-4-yl)amino)-5-((1-methylpyrrolidin-3-yl)ethynyl)pyridin-4-yl)amino)cyclohexan-1-ol] | 0.7 nM | 0.6 nM | 6.1 nM | 2920 nM | 0.1 nM | 0.1 nM | 0.05 nM | 0.1 nM | 0.6 nM | 6 nM |
| CN1CCC(C#Cc2cnc(Nc3ccnc(-c4cnn(S(=O)(=O)C5CC5)c4)n3)cc2N2CCC(C)(CO)CC2)CC1 [Example 182, (1-(2-((2-(1-(Cyclopropylsulfonyl)-1H-pyrazol-4-yl)pyrimidin-4-yl)amino)-5-((1-methylpiperidin-4-yl)ethynyl)pyridin-4-yl)-4-methylpiperidin-4-yl)methanol] | 0.4 nM | 0.3 nM | 1.8 nM | 648 nM | 0.1 nM | 0.1 nM | 0.04 nM | 0.1 nM | 0.4 nM | 1.7 nM |
| CC1(C#Cc2cnc(Nc3ccnc(-c4cnn(S(=O)(=O)C5CC5)c4)n3)cc2N2CCC(C)(CO)CC2)CCOCC1 [Example 183, (1-(2-((2-(1-(Cyclopropylsulfonyl)-1H-pyrazol-4-yl)pyrimidin-4-yl)amino)-5-((4-methyltetrahydro-2H-pyran-4-yl)ethynyl)pyridin-4-yl)-4-methylpiperidin-4-yl)methanol] | 11.7 nM | 43.9 nM | 146 nM | > 10000 nM | 2 nM | 1.9 nM | 0.9 nM | 4.1 nM | 26.9 nM | 400 nM |
| O=S(=O)(C1CC1)n1cc(-c2nccc(Nc3cc(N[C@H]4CC[C@@H](O)CC4)c(C#Cc4ccc(CN5CCOCC5)cn4)cn3)n2)cn1 [Example 184, (1s,4s)-4-((2-((2-(1-(Cyclopropylsulfonyl)-1H-pyrazol-4-yl)pyrimidin-4-yl)amino)-5-((5-(morpholinomethyl)pyridin-2-yl)ethynyl)pyridin-4-yl)amino)cyclohexan-1-ol] | 2.3 nM | 3.5 nM | 11.7 nM | > 10000 nM | 0.4 nM | 1.5 nM | 0.2 nM | 2.1 nM | 3.2 nM | 94.1 nM |
| CC1(CO)CCN(c2cc(Nc3ccnc(-c4cnn(S(=O)(=O)C5CC5)c4)n3)ncc2C#Cc2ccc(CN3CCOCC3)cn2)CC1 [Example 185, (1-(2-((2-(1-(Cyclopropylsulfonyl)-1H-pyrazol-4-yl)pyrimidin-4-yl)amino)-5-((5-(morpholinomethyl)pyridin-2-yl)ethynyl)pyridin-4-yl)-4-methylpiperidin-4-yl)methanol] | 0.5 nM | 0.8 nM | 1.7 nM | > 10000 nM | 0.4 nM | 1.2 nM | 0.2 nM | 1.1 nM | 0.9 nM | 6.8 nM |
| CC1(CO)CCN(c2cc(Nc3ccnc(-c4cnn(S(=O)(=O)C5CC5)c4)n3)ncc2C#Cc2ccc(CN3CCOCC3)nc2)CC1 [Example 187, (1-(2-((2-(1-(Cyclopropylsulfonyl)-1H-pyrazol-4-yl)pyrimidin-4-yl)amino)-5-((6-(morpholinomethyl)pyridin-3-yl)ethynyl)pyridin-4-yl)-4-methylpiperidin-4-yl)methanol] | 1.6 nM | 0.9 nM | 3.9 nM | 932 nM | 0.9 nM | 0.5 nM | 1.2 nM | 0.8 nM | 2 nM | 8.2 nM |
| CC1(CO)CCN(c2cc(Nc3ccnc(-c4cnn(S(=O)(=O)C5CC5)c4)n3)ncc2C#Cc2csc(CN3CCOCC3)n2)CC1 [Example 189, (1-(2-((2-(1-(Cyclopropylsulfonyl)-1H-pyrazol-4-yl)pyrimidin-4-yl)amino)-5-((2-(morpholinomethyl)thiazol-4-yl)ethynyl)pyridin-4-yl)-4-methylpiperidin-4-yl)methanol] | 2.1 nM | 1.8 nM | 8.4 nM | > 10000 nM | 0.7 nM | 0.7 nM | 0.6 nM | 0.9 nM | 2.8 nM | 40.4 nM |
| O=S(=O)(C1CC1)n1cc(-c2nccc(Nc3cc(N[C@H]4CC[C@@H](O)CC4)c(C#Cc4ccc(CN5CCOCC5)s4)cn3)n2)cn1 [Example 190, (1s,4s)-4-((2-((2-(1-(Cyclopropylsulfonyl)-1H-pyrazol-4-yl)pyrimidin-4-yl)amino)-5-((5-(morpholinomethyl)thiophen-2-yl)ethynyl)pyridin-4-yl)amino)cyclohexan-1-ol] | 3.3 nM | 4.6 nM | 19.7 nM | > 10000 nM | 1.8 nM | 5.1 nM | 1 nM | 6.7 nM | 8.9 nM | 71.5 nM |
| CC1(CO)CCN(c2cc(Nc3ccnc(-c4cnn(S(=O)(=O)C5CC5)c4)n3)ncc2C#Cc2ccc(CN3CCOCC3)s2)CC1 [Example 191, (1-(2-((2-(1-(Cyclopropylsulfonyl)-1H-pyrazol-4-yl)pyrimidin-4-yl)amino)-5-((5-(morpholinomethyl)thiophen-2-yl)ethynyl)pyridin-4-yl)-4-methylpiperidin-4-yl)methanol] | 2.2 nM | 4.3 nM | 8.1 nM | 3580 nM | 3 nM | 7 nM | 1.5 nM | 9.8 nM | 3.2 nM | 21.7 nM |
